Reference: paper PMC11125359 (Pharmaceuticals, 2024)
Read-outs that look alike come from different tables or passages of the source.

Columns and labels:
α-amylase = test: α-Amylase inhibition (anti-diabetic); format: biochemical; settings: equal concentrations (1000 µg/mL); mean ± SE
α-glucosidase = test: α-Glucosidase inhibition (anti-diabetic); format: biochemical; settings: equal concentrations (1000 µg/mL); mean ± SE
[1] = molecular target: acetylcholinesterase (AChE) (Homo sapiens, UniProt P22303); test: biochemical; settings: same concentration (1000 µg/mL); mean ± SE
Chain of acetylcholinesterase (AChE) (P22303 32-614, species assumed): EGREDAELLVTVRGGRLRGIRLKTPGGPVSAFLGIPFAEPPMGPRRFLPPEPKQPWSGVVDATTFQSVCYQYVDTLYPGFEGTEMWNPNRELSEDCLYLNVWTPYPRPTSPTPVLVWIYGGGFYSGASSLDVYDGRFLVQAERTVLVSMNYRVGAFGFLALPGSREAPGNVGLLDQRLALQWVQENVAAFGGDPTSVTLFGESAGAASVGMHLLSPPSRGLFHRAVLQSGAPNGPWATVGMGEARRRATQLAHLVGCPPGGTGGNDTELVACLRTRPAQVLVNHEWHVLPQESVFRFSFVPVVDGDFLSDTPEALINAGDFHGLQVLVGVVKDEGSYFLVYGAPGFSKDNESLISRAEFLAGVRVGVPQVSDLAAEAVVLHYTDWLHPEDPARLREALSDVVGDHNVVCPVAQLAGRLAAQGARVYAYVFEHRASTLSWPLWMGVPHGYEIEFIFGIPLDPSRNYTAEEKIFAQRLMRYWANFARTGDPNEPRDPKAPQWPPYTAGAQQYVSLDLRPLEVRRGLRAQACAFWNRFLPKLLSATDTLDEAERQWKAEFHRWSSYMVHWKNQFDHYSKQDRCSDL

[2] = molecular target: bovine serum albumin (BSA) (Bos taurus, UniProt P02769); settings: equal concentrations (1000 µg/mL); mean ± SE
Chain of bovine serum albumin (BSA) (P02769 25-607): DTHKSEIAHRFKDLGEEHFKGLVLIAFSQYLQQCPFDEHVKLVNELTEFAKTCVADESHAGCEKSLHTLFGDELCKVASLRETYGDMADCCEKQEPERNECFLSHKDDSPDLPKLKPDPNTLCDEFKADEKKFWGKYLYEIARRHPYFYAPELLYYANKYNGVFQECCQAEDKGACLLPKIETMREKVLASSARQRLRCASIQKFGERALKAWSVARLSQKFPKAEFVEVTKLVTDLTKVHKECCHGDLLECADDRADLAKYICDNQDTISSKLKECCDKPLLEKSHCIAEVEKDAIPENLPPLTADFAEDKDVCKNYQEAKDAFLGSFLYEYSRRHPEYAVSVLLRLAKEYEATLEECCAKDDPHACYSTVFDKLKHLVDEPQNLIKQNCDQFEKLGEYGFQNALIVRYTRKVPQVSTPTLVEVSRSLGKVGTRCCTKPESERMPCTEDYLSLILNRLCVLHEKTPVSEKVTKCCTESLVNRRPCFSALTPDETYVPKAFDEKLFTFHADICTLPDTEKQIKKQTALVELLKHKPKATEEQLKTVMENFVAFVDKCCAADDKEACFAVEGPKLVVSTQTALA

[3] = system: proteinase enzyme (trypsin); test: Proteinase enzyme inhibition (anti-inflammatory); format: biochemical; settings: equal concentrations (1000 µg/mL); mean ± SE
[4] = system: human colon cancer (Caco-2) cell line; test: cells; format: cell-based; settings: for IC50: Homo sapiens, read-out: Cytotoxic activity IC50, Colon (Caco-2)
[5] = Cytotoxic activity, MTT assay, normal lung (WI-38); format: cell-based; settings: human
caspase-3 [6] = test: Caspase-3 ELISA in treated A549 cells; format: cell-based, human; settings: DMSO control 85.92 ± 0.12
Bcl-2 [7] = test: Bcl-2 ELISA in treated A549 cells; format: cell-based, human; settings: DMSO control 9.83 ± 0.05
caspase-3 [8] = test: Caspase-3 ELISA in treated Caco-2 cells; format: cell-based, human; settings: DMSO control 97.06 ± 0.14
Bcl-2 [9] = test: Bcl-2 ELISA in treated Caco-2 cells; format: cell-based, human; settings: DMSO control 7.99 ± 0.08
[10] = Iron-reducing power (IRP); settings: equal concentrations (1000 µg/mL); mean ± SE, three replicates
[11] = ABTS radical scavenging assay; settings: equal concentrations (1000 µg/mL); mean ± SE
Method: (§1) All in vitro biological activities were assessed in the tested compounds at equal concentrations (1000 µg/mL). All assays were carried out in triplicate.
In vitro biological activities
(§2) The total antioxidant capacity (TAC) was determined by analyzing the green phosphate/Mo5+ complex at a wavelength (λ) of 695 nm, following the procedure described by Prieto
(§3) et al. Samples (at each concentration) were mixed with a reagent solution containing 0.3 N sulfuric
(§4) acid, 28 mM sodium phosphate, and 4 mM ammonium molybdate. Methanol (80%) was used in place
(§5) of the sample for the blank. The tubes were sealed and incubated in a boiling water bath for 90
(§6) minutes. After cooling to room temperature, the absorbance was measured at 695 nm against the
(§7) blank. Ascorbic acid was used at the same concentrations as a standard. The antioxidant capacity was
(§8) expressed as mg gallic acid equivalent per gram weight.
(§9) The iron reducing power was determined as µg/mL using the method proposed by Oyaizu
(§10) In brief, 1ml of the tested sample (at each concentration) was combined with 1mL of 200mM
(§11) sodium phosphate buffer (pH 6.6) and 1mL of 1% potassium ferricyanide. The mixture was then
(§12) incubated at 50°C for 20 minutes, followed by the addition of 1mL of trichloroacetic acid (10%). After
(§13) centrifugation at 2000rpm for 10 minutes, the upper layer solution (2.5 mL) was mixed with 2.5 mL of double deionized water and 1mL of fresh ferric chloride (0.1%). The absorbance was measured at
(§14) 700nm against a blank prepared without the sample. Ascorbic acid was used at the same
(§15) concentrations as a standard. A high absorbance at 700nm indicates a higher reducing power in the
(§16) The 1,1-Diphenyl-2-picryl-hydrazyl (DPPH) radical scavenging activities were evaluated using the method described by Rahman et al. An antioxidant substance capable of donating a
(§17) hydrogen atom to a solution containing DPPH- can reduce the stable free radical, causing the solution
(§18) to change color from violet to pale yellow. The remaining DPPH- radical was quantified by
(§19) nm using a spectroscopic method. Two milliliters of a DPPH solution (100 µM) in ethanol were mixed
(§20) with 2 mL of the sample (at each concentration). The reaction mixture for each concentration was
(§21) thoroughly vortexed and then incubated in the dark at room temperature for 30 minutes. The
(§22) absorbance was then measured spectrophotometrically at 518 nm against a blank (ethanol). For the
(§23) control, 2 mL of ethanol was added instead of the sample and run simultaneously with the test.
(§24) Ascorbic acid was used at the same concentrations as a positive control. Percent inhibition of the
(§25) DPPH free radical was calculated. The median inhibitory concentration (IC 50) for each tested
(§26) The procedure for the 2,2'-azinobis-(3-ethylbenzothiazoline-6-sulfonic acid) (ABTS) assay
(§27) potassium persulfate solution (2.4 mM). The working solution was prepared by mixing the two stock
(§28) solutions in equal quantities and allowing them to react at room temperature in a dark place for 14
(§29) hours. The solution was then diluted by mixing 1 mL of ABTS solution with 60 mL of methanol to
(§30) was prepared for each assay. The tested samples (at each concentration) were allowed to react with 1
(§31) mL of the ABTS solution, and the absorbance was taken at 734 nm after 7 minutes using a
(§32) spectrophotometer. The ABTS scavenging capacities of the samples were compared with that of
(§33) ascorbic acid (at the same concentrations).

[12] = DPPH radical-scavenging activity; settings: read-out: DPPH (IC50); mean ± SE, three replicates
Method: In vitro biological activities
as §16, §17, §18, §19, §20, §21, §22, §23, §24, §25

[13] = system: human lung cancer (A549) cell line; test: Cytotoxic activity, MTT assay, lung (A549); settings: for IC50: Homo sapiens, A549, 48 h, read-out: Cytotoxic activity IC50, Lung (A549)
Method: (§34) It will be assayed against human lung cancer (A549) and colon (Caco-2) cell line in
(§35) comparison with normal lung (WI-38) cell line using 3-(4,5-dimethythiazol-2-yl)-2,5-diphenyl
(§36) tetrazolium bromide (MTT) assay by determining the optical density (OD) at 570 nm according to the
(§37) The cells were dispensed in a 96-well sterile microplate (3
(§38) µL of each compound or doxorubicin (positive control, in DMSO) for 48 h in a serum free medium
(§39) prior to the MTT assay. Subsequently, the media were carefully removed, and 40 µL of MTT (2.5
(§40) mg/mL) was added to each well and then incubated for an additional 4 h. Purple formazan dye
(§41) crystals were solubilized by the addition of 200 µL of DMSO. The absorbance was measured at 570 nm using a SpectraMax Paradigm Multi-Mode microplate reader. The relative cell viability was
(§42) experiments were conducted in triplicate. Percent of the cell-growth inhibition (%) and the IC 50 was
(§43) calculated using IC 50 calculation software. The concentrations used for calculating the IC 50 depend on

[14] = Total antioxidant capacity (TAC), phosphomolybdenum method; settings: equal concentrations (1000 µg/mL); mean ± SE, three replicates
Method: as §1
In vitro biological activities
as §2, §3, §4, §5, §6, §7, §8, §9, §10, §11, §12, §13, §14, §15, §16, §17, §18, §19, §20, §21, §22, §23, §24, §25, §26, §27, §28, §29, §30, §31, §32, §33

[15] = system: human lung cancer (A549) cell line; settings: 48 h
Method: as §34, §35, §36, §37, §38, §39, §40, §41, §42, §43

[16] = Conc.: 5a 13.45, 5d 12.64, 5e 12.29, 5f 11.81, 7a 12.72, 7f 11.24, DOX 11.50
[17] = Conc.: 5a 26.91, 5d 25.27, 5e 24.58, 5f 23.63, 7a 25.43, 7f 22.48, DOX 23.00
[18] = Conc.: 5a 53.81, 5d 50.55, 5e 49.15, 5f 47.26, 7a 50.86, 7f 44.96, DOX 46.00
[19] = Conc.: 5a 107.63, 5d 101.09, 5e 98.31, 5f 94.51, 7a 101.72, 7f 89.93, DOX 91.99
[20] = Conc.: 5a 215.26, 5d 202.19, 5e 196.61, 5f 189.03, 7a 203.44, 7f 179.85, DOX 183.99

Structure (SMILES): O=C(Nc1ccccc1)c1c(Nc2ccccc2)n[nH]c1N=Cc1ccc(N2CCCCC2)cc1 [5a]
- Inhibition (%) α-Amylase (α-amylase): 31.24 ± 0.05%
- Inhibition (%) α-Glucosidase (α-glucosidase): 26.87 ± 0.05%
- inhibition at 1000 µg/mL [1]: 42.05 ± 0.03%
- Inhibition (%) Protein Denaturation [2]: 26.83 ± 0.03%
- Inhibition (%) Proteinase [3]: 23.33 ± 0.03%
- Viability %, Caco-2, 1st concentration [4, 16]: 82.93%
- Viability %, Caco-2, 2nd concentration [4, 17]: 74.41%
- Viability %, Caco-2, 3rd concentration [4, 18]: 55.38%
- Viability %, Caco-2, 4th concentration [4, 19]: 33.22%
- Viability %, Caco-2, 5th concentration [4, 20]: 25.84%
- IC50 ([4]; Caco-2, 48 h, MTT, mean ± SE): 60.29 ± 0.14 µM
- Therapeutic Index (TI), Colon (Caco-2) ([4]; IC50 on normal cells (WI-38)/IC50 on Caco-2): 7.32
- viability at 48 h ([5]; WI-38 normal lung cells, Conc. as printed: 5a 53.81, 5d 50.55, 5e 49.15, 5f 47.26, 7a 50.86, 7f 44.96, DOX 46.00, read-out: Viability %, WI-38, 3rd concentration): 69.5%
- viability at 48 h ([5]; WI-38 normal lung cells, Conc. as printed: 5a 107.63, 5d 101.09, 5e 98.31, 5f 94.51, 7a 101.72, 7f 89.93, DOX 91.99, read-out: Viability %, WI-38, 4th concentration): 54.2%
- viability at 48 h ([5]; WI-38 normal lung cells, Conc.: 5a 13.45, 5d 12.64, 5e 12.29, 5f 11.81, 7a 12.72, 7f 11.24, DOX 11.50, read-out: Viability %, WI-38, 1st concentration): 81.4%
- viability at 48 h ([5]; WI-38 normal lung cells, Conc.: 5a 26.91, 5d 25.27, 5e 24.58, 5f 23.63, 7a 25.43, 7f 22.48, DOX 23.00, read-out: Viability %, WI-38, 2nd concentration): 75.5%
- viability at 48 h ([5]; WI-38 normal lung cells, Conc.: 5a 215.26, 5d 202.19, 5e 196.61, 5f 189.03, 7a 203.44, 7f 179.85, DOX 183.99, read-out: Viability %, WI-38, 5th concentration): 38.3%
- IC50 at 48 h ([5]; WI-38 normal lung cells, 48 h, MTT, mean ± SE, read-out: Cytotoxic activity IC50, Normal Lung (WI-38)): 442 ± 8.8 µM
- Caspase-3 level, Lung (A549) (caspase-3 [6]): 184.74 ± 0.26 pg/mL
- Bcl-2 level, Lung (A549) (Bcl-2 [7]): 6.55 ± 0.03 ng/mL
- Caspase-3 level, Colon (Caco-2) (caspase-3 [8]): 208.68 ± 0.31 pg/mL
- Bcl-2 level, Colon (Caco-2) (Bcl-2 [9]): 5.33 ± 0.05 ng/mL
- Iron-Reducing Power (IRP) [10]: 34.27 ± 0.07 µg/mL
- ABTS (%) inhibition [11]: 75.46 ± 0.05%
- IC50 [12]: 26.43 ± 0.01 µM
- Viability %, A549, 1st concentration [13, 16]: 97.46%
- Viability %, A549, 2nd concentration [13, 17]: 87.31%
- Viability %, A549, 3rd concentration [13, 18]: 60.91%
- Viability %, A549, 4th concentration [13, 19]: 46.48%
- Viability %, A549, 5th concentration [13, 20]: 20.20%
- IC50 [13]: 68.84 ± 0.14 µM
- Total Antioxidant Capacity (TAC) [14]: 52.25 ± 0.19 mg Gallic Acid/g

Structure (SMILES): COc1cccc2c1C(=O)c1c(O)c3c(c(O)c1C2=O)C[C@@](O)(C(=O)CO)C[C@@H]3O[C@H]1C[C@H](N)[C@H](O)[C@H](C)O1 [Doxorubicin, reference compound]
- Therapeutic Index (TI), Colon (Caco-2) ([4]; Caco-2): 5.55
- IC50 ([4]; Caco-2, 48 h): 54.94 ± 0.16 µM
- Viability %, Caco-2, 1st concentration ([4]; human, Caco-2, 48 h): 72.32%
- Viability %, Caco-2, 2nd concentration ([4]; human, Caco-2, 48 h): 50.77%
- Viability %, Caco-2, 3rd concentration ([4]; human, Caco-2, 48 h): 41.86%
- Viability %, Caco-2, 4th concentration ([4]; human, Caco-2, 48 h): 23.02%
- Viability %, Caco-2, 5th concentration ([4]; human, Caco-2, 48 h): 20.05%
- IC50 at 48 h [5]: 305 ± 4.72 µM
- viability at 48 h ([5]; Viability %, WI-38, 1st concentration): 77.5%
- viability at 48 h ([5]; Viability %, WI-38, 2nd concentration): 69.1%
- viability at 48 h ([5]; Viability %, WI-38, 3rd concentration): 62.3%
- viability at 48 h ([5]; Viability %, WI-38, 4th concentration): 52.7%
- viability at 48 h ([5]; Viability %, WI-38, 5th concentration): 38.5%
- Caspase-3 level, Lung (A549) (caspase-3 [6]): 330.80 ± 0.46 pg/mL
- Bcl-2 level, Lung (A549) (Bcl-2 [7]): 2.55 ± 0.01 ng/mL
- Viability %, A549, 1st concentration [15]: 80.86%
- Viability %, A549, 2nd concentration [15]: 69.31%
- Viability %, A549, 3rd concentration [15]: 36.91%
- Viability %, A549, 4th concentration [15]: 18.92%
- Viability %, A549, 5th concentration [15]: 11.20%
- IC50 [13]: 36.45 ± 0.16 µM
